{
  "source": "ChEMBL document CHEMBL4342436",
  "about": "“Artemisia: a promising plant for the treatment of cancer” (Bioorg Med Chem, 2020)",
  "key": {"[1]": {"system": "MCF7", "experiment": "Cytotoxicity against human MCF7 cells at 50 nM in presence of doxorubicin relative to control", "assay_type": "functional"}, "[2]": {"experiment": "Cytotoxicity against human PG100 cells assessed as cell viability at 955.2 ug/mL after 24 hrs by MTT assay relative to control", "assay_type": "functional", "conditions": "read-out: Activity"}, "[3]": {"system": "HeLa", "experiment": "Cytotoxicity against human HeLa cells", "assay_type": "functional, cell-based"}, "[4]": {"system": "K562", "experiment": "Cytotoxicity against human K562 cells", "assay_type": "functional", "conditions": "read-out: ED50 (the source's name)"}, "[5]": {"system": "HL-60(TB)", "experiment": "Cytotoxicity against human HL-60(TB) cells", "assay_type": "functional", "conditions": "read-out: ED50 (the source's name)"}, "[6]": {"system": "CCRF-CEM", "experiment": "Cytotoxicity against human CCRF-CEM cells", "assay_type": "functional", "conditions": "read-out: ED50 (the source's name)"}, "[7]": {"experiment": "Antitumour activity against mouse mammary cancer cells transplanted in Balb/c mouse assessed as tumour size at 6 mg/kg, ip for 13 days", "assay_type": "functional"}, "[8]": {"system": "HL-60", "experiment": "Antiproliferative activity against human HL60 cells assessed as reduction in cell viability after 3 days by XTT assay", "assay_type": "functional, cell-based", "conditions": "HL-60, 72 h"}, "[9]": {"system": "MIA PaCa-2", "experiment": "Cytotoxicity against human MIAPaCa2 cells after 24 hrs by MTT assay", "assay_type": "functional, cell-based", "conditions": "MIA PaCa-2, 24 h"}, "[10]": {"system": "HEp-2", "experiment": "Cytotoxicity against human Hep2 cells after 24 hrs by MTT assay", "assay_type": "functional, cell-based", "conditions": "HEp-2, 24 h"}, "[11]": {"system": "A549", "experiment": "Cytotoxicity against human A549 cells after 24 hrs by MTT assay", "assay_type": "functional, cell-based", "conditions": "A549, 24 h"}, "[12]": {"system": "HT-29", "experiment": "Cytotoxicity against human HT-29 cells after 24 hrs by MTT assay", "assay_type": "functional, cell-based", "conditions": "HT-29, 24 h"}, "[13]": {"system": "LNCaP", "experiment": "Cytotoxicity against human LNCAP cells", "assay_type": "functional, cell-based"}, "[14]": {"system": "KB", "experiment": "Cytotoxicity against human KB cells", "assay_type": "functional, cell-based"}, "[15]": {"system": "MCF7", "experiment": "Cytotoxicity against human MCF7 cells", "assay_type": "functional, cell-based"}, "[16]": {"system": "SK-MEL-2", "experiment": "Cytotoxicity against human SK-MEL-2 cells", "assay_type": "functional, cell-based"}, "[17]": {"system": "HepG2", "experiment": "Cytotoxicity against human HepG2 cells", "assay_type": "functional, cell-based"}, "[18]": {"system": "MCF-10A", "experiment": "Induction of apoptosis n human MCF10A transformed with RAS gene at 100 uM by flow cytometric analysis relative to control", "assay_type": "functional"}, "[19]": {"system": "THP-1", "experiment": "Cytotoxicity against human THP1 cells after 48 hrs by trypan blue dye exclusion counting method", "assay_type": "functional, cell-based", "conditions": "THP-1, 48 h"}, "[20]": {"system": "U-87 MG", "experiment": "Induction of apoptosis in human U87MG cells assessed as increase in apoptotic cells at 50 uM after 24 hrs by Annexin V-FITC/propidium iodide staining based flow cytometric analysis relative to control", "assay_type": "functional, U-87MG ATCC"}, "[21]": {"experiment": "Antiproliferative activity against human SNU484 cells assessed as reduction in cell viability after 24 hrs by CCK8 assay", "assay_type": "functional, cell-based", "conditions": "SNU-484, 24 h"}, "[22]": {"experiment": "Antiproliferative activity against human SNU601 cells assessed as reduction in cell viability after 24 hrs by CCK8 assay", "assay_type": "functional, cell-based", "conditions": "SNU-601, 24 h"}, "[23]": {"system": "MKN-1", "experiment": "Antiproliferative activity against human MKN1 cells assessed as reduction in cell viability after 24 hrs by CCK8 assay", "assay_type": "functional, cell-based", "conditions": "MKN-1, 24 h"}, "[24]": {"system": "SNU-638", "experiment": "Antiproliferative activity against human SNU638 cells assessed as reduction in cell viability after 24 hrs by CCK8 assay", "assay_type": "functional, cell-based", "conditions": "SNU-638, 24 h"}, "[25]": {"system": "HL-60", "experiment": "Antiproliferative activity against human HL60 cells assessed as cell viability at 150 uM by MTT assay relative to control", "assay_type": "functional", "conditions": "read-out: Activity"}, "[26]": {"system": "AGS", "experiment": "Antiproliferative activity against human AGS cells assessed as reduction in cell viability after 24 hrs by CCK8 assay", "assay_type": "functional, cell-based"}, "[27]": {"experiment": "Cytotoxicity against human 95-D cells by SRB assay", "assay_type": "functional, cell-based"}, "[28]": {"system": "DU-145", "experiment": "Growth inhibition of human DU145 cells at 200 uM after 24 hrs by WST-1 assay relative to control", "assay_type": "functional", "conditions": "DU-145, 24 h, read-out: GI"}},
  "data": [
    {"smiles": "CO[C@H]1O[C@@H]2O[C@@]3(C)CC[C@H]4[C@H](C)CC[C@@H]([C@H]1C)[C@@]24OO3", "values": [
      {"measurement": "Activity", "setting": "[1]", "value": 50, "unit": "%"},
      {"measurement": "viability at 955.2 µg/mL", "setting": "[2]", "value": 5.55, "unit": "%"}
    ]},
    {"smiles": "O=c1cc(-c2ccc(O)c(O)c2)oc2cc(O)cc(O)c12", "note": "[LUTEOLIN]", "values": [
      {"measurement": "IC50", "setting": "[3]", "value": 16.3, "unit": "µM"}
    ]},
    {"smiles": "C=C1C(=O)O[C@@H]2O[C@@]3(C)CC[C@H]4[C@H](C)CC[C@@H]1[C@@]24O3", "note": "[DEOXYARTEMISITENE]", "values": [
      {"measurement": "EC50", "setting": "[4]", "value": 0.94, "unit": "µg/mL"},
      {"measurement": "EC50", "setting": "[5]", "value": 0.62, "unit": "µg/mL"},
      {"measurement": "EC50", "setting": "[6]", "value": 0.92, "unit": "µg/mL"}
    ]},
    {"smiles": "CCO[C@H]1O[C@@H]2O[C@@]3(C)CC[C@H]4[C@H](C)CC[C@@H]([C@H]1C)[C@@]24OO3", "note": "[ARTEMOTIL]", "values": [
      {"measurement": "Activity", "setting": "[7]", "value": 800, "unit": "mm3"}
    ]},
    {"smiles": "CC#CC#CC(=O)c1ccccc1", "values": [
      {"measurement": "IC50", "setting": "[8]", "value": "1.1 to 40.7", "unit": "µg/mL"},
      {"measurement": "IC50", "setting": "[9]", "value": "0.6 to 6.1", "unit": "µM"},
      {"measurement": "IC50", "setting": "[10]", "value": "0.6 to 6.1", "unit": "µM"},
      {"measurement": "IC50", "setting": "[11]", "value": "0.6 to 6.1", "unit": "µM"},
      {"measurement": "IC50", "setting": "[12]", "value": "0.6 to 6.1", "unit": "µM"}
    ]},
    {"smiles": "C=C1C(=O)O[C@H]2[C@H]1CC[C@@](C)(O)C1=C[C@H](O)[C@@](C)(O)[C@@H]12", "values": [
      {"measurement": "IC50", "setting": "[13]", "value": "> 100", "unit": "µM"},
      {"measurement": "IC50", "setting": "[14]", "value": "> 100", "unit": "µM"},
      {"measurement": "IC50", "setting": "[15]", "value": "> 100", "unit": "µM"},
      {"measurement": "IC50", "setting": "[16]", "value": "> 100", "unit": "µM"},
      {"measurement": "IC50", "setting": "[17]", "value": "> 100", "unit": "µM"}
    ]},
    {"smiles": "COc1cc(-c2cc(=O)c3c(O)c(OC)c(O)cc3o2)ccc1O", "note": "[JACEOSIDINE]", "values": [
      {"measurement": "Activity", "setting": "[18]", "value": 48.72, "unit": "%"},
      {"measurement": "IC50", "setting": "[19]", "value": 70.5, "unit": "µM"}
    ]},
    {"smiles": "COc1ccc(-c2cc(=O)c3c(O)c(OC)c(O)cc3o2)cc1OC", "note": "[EUPATILIN]", "values": [
      {"measurement": "Activity", "setting": "[20]", "value": 40, "unit": "%"},
      {"measurement": "IC50", "setting": "[21]", "value": "50 to 100", "unit": "µM"},
      {"measurement": "IC50", "setting": "[22]", "value": "50 to 100", "unit": "µM"},
      {"measurement": "IC50", "setting": "[23]", "value": "50 to 100", "unit": "µM"},
      {"measurement": "IC50", "setting": "[24]", "value": "50 to 100", "unit": "µM"},
      {"measurement": "viability at 150 µM", "setting": "[25]", "value": 50, "unit": "%"},
      {"measurement": "IC50", "setting": "[26]", "value": "50 to 100", "unit": "µM"}
    ]},
    {"smiles": "CC1(C)CCC[C@@]2(C)[C@H]1[C@H](O)C=C1COC(=O)[C@@]12O", "note": "[STROBILACTONE A]", "values": [
      {"measurement": "IC50", "setting": "[27]", "value": 19.8, "unit": "µM"}
    ]},
    {"smiles": "COc1c(O)cc2oc(Oc3ccc(O)cc3)cc(=O)c2c1O", "values": [
      {"measurement": "IC50", "setting": "[8]", "value": "1.1 to 40.7", "unit": "µg/mL"},
      {"measurement": "inhibition of growth at 200 µM", "setting": "[28]", "value": 20, "unit": "%"}
    ]}
  ]
}
